Experiments:
σ1-receptor = molecular target: T1, σ1-receptor (Cavia porcellus, UniProt Q60492); assay: σ1-receptor binding assay, [3H]-(+)-pentazocine, guinea pig brain membranes; conditions: [3H]-(+)-pentazocine 5.0 nM
T1 construct: Guinea pig brains were homogenized in 10 vols; (w/v) of Tris-HCl 50 mM 0.32 M sucrose; from tissue; host or cells: guinea pig brain membranes
Experimental: Brain membrane preparation and binding assays for the σ1-receptor were performed as described (DeHaven-Hudkins, D. L., L.C. Fleissner, and F. Y. Ford-Rice, 1992, Characterization of the binding of [^3H](+)pentazocine to σ recognition sites in guinea pig brain, Eur. J. Pharmacol. 227, 371-378) with some modifications. Guinea pig brains were homogenized in 10 vols. (w/v) of Tris-HCl 50 mM 0.32 M sucrose, pH 7.4, with a Kinematica Polytron PT 3000 at 15000 r.p.m. for 30 s. The homogenate was centrifuged at 1000 g for 10 min at 4° C. and the supernatants collected and centrifuged again at 48000 g for 15 min at 4° C. The pellet was resuspended in 10 volumes of Tris-HCl buffer (50 mM, pH 7.4), incubated at 37° C. for 30 min, and centrifuged at 48000 g for 20 min at 4° C. Following this, the pellet was re-suspended in fresh Tris-HCl buffer (50 mM, pH 7.4) and stored on ice until use.
The radioligand used was [^3H]-(+)-pentazocine at 5.0 nM and the final volume was 200 μl. The incubation was initiated with the addition of 100 μA of membrane at a final tissue concentration of approximately 5 mg tissue net weight/mL and the incubation time was 150 m. at 37° C. After incubation, the membranes were collected onto pretreated glass fiber filterplate (MultiScreen-FC, Millipore), with polyethylenimine 0.1%. The filters were washed two times with 200 μA of washing buffer (50 mM Tris Cl, pH=7.4) and then 25 μA of Ecoscint H liquid scintillation cocktail were added. Microplates were allowed to set for several hours and then quantified by liquid scintillation spectrophotometry (1450 Microbeta, Wallac). Nonspecific binding was determined with 1 μM haloperidol.

T1 sequence (Q60492 whole entry): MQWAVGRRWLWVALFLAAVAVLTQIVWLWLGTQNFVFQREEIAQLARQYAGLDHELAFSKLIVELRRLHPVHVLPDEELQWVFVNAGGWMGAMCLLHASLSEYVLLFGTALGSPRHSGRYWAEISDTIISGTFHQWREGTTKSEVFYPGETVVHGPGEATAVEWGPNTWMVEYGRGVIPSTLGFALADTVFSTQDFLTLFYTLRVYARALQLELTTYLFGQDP

c1nnn2c1COC1CNC[C@H]12 (some centres unmarked)
melting point: 217 °C (dec.)

CCN1CC2OCc3cnnn3[C@@H]2C1 (some centres unmarked)
melting point: 59 to 60 °C

COc1ccc(CN2C[C@@H]3[C@@H](C2)OCc2c(C)nnn23)cc1 (relative stereo) [Example 2, (5a,8a-trans)-7-(4-methoxybenzyl)-3-methyl-4,5a,6,7,8,8a-hexahydro pyrrolo[3,4-b][1,2,3]triazolo[1,5-d][1,4]oxazine]
Ki (σ1-receptor): > 1000 nM

COc1ccc(CN2CC3OCc4cnnn4[C@@H]3C2)cc1 (stereo partly drawn) [Example 1, (5a,8a-trans)-7-(4-methoxybenzyl)-4,5a,6,7,8,8a-hexahydropyrrolo[3,4-b][1,2,3]triazolo[1,5-d][1,4]oxazine]
melting point: 150 to 151 °C

CS(=O)(=O)N1CC2OCc3cnnn3[C@@H]2C1 (stereo partly drawn) [Example 14, (5a,8a-trans)-7-(methylsulfonyl)-4,5a,6,7,8,8a-hexahydropyrrolo[3,4-b][1,2,3]triazolo[1,5-d][1,4]oxazine]
melting point: 204 to 206 °C

O=S(=O)(c1ccc(Br)cc1)N1CC2OCc3cnnn3[C@@H]2C1 (stereo partly drawn) [Example 15, (5a,8a-trans)-7-(4-bromophenylsulfonyl)-4,5a,6,7,8,8a-hexahydro pyrrolo[3,4-b][1,2,3]triazolo[1,5-d][1,4]oxazine]
melting point: 220 to 221 °C

O=S(=O)(c1ccccc1)N1CC2OCc3cnnn3[C@@H]2C1 (stereo partly drawn) [Example 16, (5a,8a-trans)-7-(phenylsulfonyl)-4,5a,6,7,8,8a-hexahydropyrrolo[3,4-b][1,2,3]triazolo[1,5-d][1,4]oxazine]
melting point: 168 to 170 °C

O=S(=O)(c1ccccc1F)N1CC2OCc3cnnn3[C@@H]2C1 (stereo partly drawn) [Example 17, (5a,8a-trans)-7-(2-fluorophenylsulfonyl)-4,5a,6,7,8,8a-hexahydro pyrrolo[3,4-b][1,2,3]triazolo[1,5-d][1,4]oxazine]
melting point: 178 to 180 °C

O=S(=O)(c1ccc(F)cc1)N1CC2OCc3cnnn3[C@@H]2C1 (stereo partly drawn) [Example 18, (5a,8a-trans)-7-(4-fluorophenylsulfonyl)-4,5a,6,7,8,8a-hexahydro pyrrolo[3,4-b][1,2,3]triazolo[1,5-d][1,4]oxazine]
melting point: 208 to 209 °C

CS(=O)(=O)N1CC2OCc3c(-c4ccccc4)nnn3[C@@H]2C1 (some centres unmarked) [Example 19, (5a,8a)-7-(methylsulfonyl)-3-phenyl-4,5a,6,7,8,8a-hexahydropyrrolo[3,4-b][1,2,3]triazolo[1,5-d][1,4]oxazine]
melting point: 293 to 295 °C

O=S(=O)(c1ccc(F)cc1)N1CC2OCc3c(-c4ccccc4)nnn3[C@@H]2C1 (stereo partly drawn) [Example 20, (5a,8a-trans)-7-(4-fluorophenylsulfonyl)-3-phenyl-4,5a,6,7,8,8a-hexa hydropyrrolo[3,4-b][1,2,3]triazolo[1,5-d][1,4]oxazine]
melting point: 287 to 288 °C

O=C(c1ccccc1F)N1CC2OCc3cnnn3[C@@H]2C1 (stereo partly drawn) [Example 21, (2-fluorophenyl)((5a,8a-trans)-5a,6,8,8a-tetrahydropyrrolo[3,4-b][1,2,3]triazolo[1,5-d][1,4]oxazin-7(4H)-yl)methanone]
melting point: 188 to 190 °C

O=C(c1ccccc1)N1CC2OCc3cnnn3[C@@H]2C1 (stereo partly drawn) [Example 22, phenyl((5a,8a-trans)-5a,6,8,8a-tetrahydropyrrolo[3,4-b][1,2,3]triazolo[1,5-d][1,4]oxazin-7(4H)-yl)methanone]
melting point: 173 to 174 °C

O=C(CCc1ccccc1)N1CC2OCc3cnnn3[C@@H]2C1 (stereo partly drawn) [Example 24, 3-phenyl-1-((5a,8a-trans)-5a,6,8,8a-tetrahydropyrrolo[3,4-b][1,2,3]triazolo[1,5-d][1,4]oxazin-7(4H)-yl)propan-1-one]
melting point: 134 to 135 °C

O=C(c1cccs1)N1CC2OCc3cnnn3[C@@H]2C1 (stereo partly drawn) [Example 26, ((5a,8a-trans)-5a,6,8,8a-tetrahydropyrrolo[3,4-b][1,2,3]triazolo[1,5-d][1,4]oxazin-7(4H)-yl)(thiophen-2-yl)methanone]
melting point: 186 to 188 °C

O=C(c1ccccc1)N1CC2OCc3c(-c4ccccc4)nnn3[C@@H]2C1 (stereo partly drawn) [Example 27, phenyl((5a,8a-trans)-3-phenyl-5a,6,8,8a-tetrahydropyrrolo[3,4-b][1,2,3]triazolo[1,5-d][1,4]oxazin-7(4H)-yl)methanone]
melting point: 237 to 239 °C

O=C(c1cccs1)N1CC2OCc3c(-c4ccccc4)nnn3[C@@H]2C1 (stereo partly drawn) [Example 30, ((5a,8a-trans)-3-phenyl-5a,6,8,8a-tetrahydropyrrolo[3,4-b][1,2,3]triazolo[1,5-d][1,4]oxazin-7(4H)-yl)(thiophen-2-yl)methanone]
melting point: 248 to 249 °C

CCCCNC(=O)N1CC2OCc3cnnn3[C@@H]2C1 (stereo partly drawn) [Example 31, (5a,8a-trans)-N-butyl-5a,6,8,8a-tetrahydropyrrolo[3,4-b][1,2,3]triazolo[1,5-d][1,4]oxazine-7(4H)-carboxamide]
melting point: 194 to 195 °C

O=C(Nc1ccccc1)N1CC2OCc3cnnn3[C@@H]2C1 (stereo partly drawn) [Example 32, (5a,8a-trans)-N-phenyl-5a,6,8,8a-tetrahydropyrrolo[3,4-b][1,2,3] triazolo[1,5-d][1,4]oxazine-7(4H)-carboxamide]
melting point: 227 to 228 °C

O=C(Nc1ccccc1)N1CC2OCc3c(-c4ccccc4)nnn3[C@@H]2C1 (stereo partly drawn) [Example 33, (5a,8a-trans)-N,3-diphenyl-5a,6,8,8a-tetrahydropyrrolo[3,4-b][1,2,3] triazolo[1,5-d][1,4]oxazine-7(4H)-carboxamide]
melting point: 275 to 277 °C

O=C(OCc1ccccc1)N1CC2OCc3c(-c4ccccc4)nnn3[C@@H]2C1 (stereo partly drawn) [Example 34, (5a,8a-trans)-benzyl3-phenyl-5a,6,8,8a-tetrahydropyrrolo[3,4-b][1,2,3] triazolo[1,5-d][1,4]oxazine-7(4H)-carboxylate]
melting point: 209 to 212 °C

c1cnc(N2CC3OCc4cnnn4[C@@H]3C2)nc1 (stereo partly drawn) [Example 35, (5a,8a-trans)-7-(pyrimidin-2-yl)-4,5a,6,7,8,8a-hexahydropyrrolo[3,4-b][1,2,3]triazolo[1,5-d][1,4]oxazine]
melting point: 256 to 257 °C

c1ccc(-c2nnn3c2COC2CN(c4ncccn4)C[C@H]23)cc1 (stereo partly drawn) [Example 40, (5a,8a-trans)-3-phenyl-7-(pyrimidin-2-yl)-4,5a,6,7,8,8a-hexahydro pyrrolo[3,4-b][1,2,3]triazolo[1,5-d][1,4]oxazine]
melting point: 256 to 257 °C

c1ccc(N2CC3OCc4cnnn4[C@@H]3C2)cc1 (stereo partly drawn) [Example 42, (5a,8a-trans)-7-phenyl-4,5a,6,7,8,8a-hexahydropyrrolo[3,4-b][1,2,3] triazolo[1,5-d][1,4]oxazine]
melting point: 222 to 223 °C

Clc1ccc(N2CC3OCc4cnnn4[C@@H]3C2)cc1 (stereo partly drawn) [Example 43, (5a,8a-trans)-7-(4-chlorophenyl)-4,5a,6,7,8,8a-hexahydropyrrolo[3,4-b][1,2,3]triazolo[1,5-d][1,4]oxazine]
melting point: 238 °C (dec.)

c1ccc(N2CC3OCc4cnnn4[C@@H]3C2)nc1 (stereo partly drawn) [Example 44, (5a,8a-trans)-7-(pyridin-2-yl)-4,5a,6,7,8,8a-hexahydropyrrolo[3,4-b][1,2,3]triazolo[1,5-d][1,4]oxazine]
melting point: 216 °C (dec.)

c1ccc(-c2nnn3c2COC2CN(c4ccccc4)C[C@H]23)cc1 (stereo partly drawn) [Example 45, (5a,8a-trans)-3,7-diphenyl-4,5a,6,7,8,8a-hexahydropyrrolo[3,4-b][1,2,3] triazolo[1,5-d][1,4]oxazine]
melting point: 256 to 257 °C

CC(C)(C)OC(=O)N1C[C@@H]2OCc3cnnn3[C@H]2C1 [Example 53, (5aS,8aS)-tert-butyl 5a,6,8,8a-tetrahydropyrrolo[3,4-b][1,2,3]triazolo[1,5-d][1,4]oxazine-7(4H)-carboxylate]
melting point: 155 to 157 °C

Cc1nnn2c1CO[C@H]1CN(C(=O)OC(C)(C)C)C[C@@H]12 [Example 54, (5aS,8aS)-tert-butyl 3-methyl-5a,6,8,8a-tetrahydropyrrolo[3,4-b][1,2,3] triazolo[1,5-d][1,4]oxazine-7(4H)-carboxylate]
melting point: 195 to 196 °C

CC(C)(C)OC(=O)N1C[C@@H]2OCc3c(-c4ccccc4)nnn3[C@H]2C1 [Example 55, (5aS,8aS)-tert-butyl 3-phenyl-5a,6,8,8a-tetrahydropyrrolo[3,4-b][1,2,3] triazolo[1,5-d][1,4]oxazine-7(4H)-carboxylate]
melting point: 236 to 237 °C

CC(C)(C)OC(=O)N1C[C@@H]2OCc3c(-c4cccc(F)c4)nnn3[C@H]2C1 [Example 56, (5aS,8aS)-tert-butyl 3-(3-fluorophenyl)-5a,6,8,8a-tetrahydropyrrolo[3,4-b][1,2,3]triazolo[1,5-d][1,4]oxazine-7(4H)-carboxylate]
melting point: 249 to 250 °C

CC(C)(C)OC(=O)N1CC2OCc3c(-c4ccc(C(F)(F)F)cc4)nnn3[C@H]2C1 (stereo partly drawn) [Example 57, (5aS,8aS)-tert-butyl-3-(4-(trifluoromethyl)phenyl)-5a,6,8,8a-tetrahydropyrrolo[3,4-b][1,2,3]triazolo[1,5-c][1,4]oxazine-7(4H)-carboxylate]
melting point: 238 to 239 °C
